Here are results for two compounds from article PMC5835975, “[^64Cu]NOTA-pentixather enables high resolution PET imaging of CXCR4 expression in a preclinical lymphoma model” (EJNMMI Radiopharmacy and Chemistry, 2017).

For data set [1], the system named is Daudi xenograft-bearing CB-17 SCID mice. The note with it: mouse, in vivo. As to the method: (§1) Biodistribution data of [^64Cu]NOTA-pentixather at 1.5 h p.i. (n = 5, black bars) and 24 h p.i. Given the fact that Jurkat cells, which are generally used for the determination of CXCR4 affinity, are not tumorigenic in mice and to ensure comparability of data with previous studies (Poschenrieder et al. [2016a]; Wester et al. [2015]; Schottelius et al. [2015]), the Daudi lymphoma model was also used in this study. […] While the tumor-to-background ratios for most tissues remain unchanged or decrease within the observation period, t/blood and t/intestine ratios increase 1.3 and 2.4 fold between 1.5 and 24 h p.i., respectively.
(§2) Fig. 3 Biodistribution of [^64Cu]NOTA-pentixather at 1.5 h (tracer only, black bars, n = 5) and 24 h p.i. (grey bars, n = 6) in Daudi xenograft-bearing CB-17 SCID mice. Mice were injected with 5.2 MBq [^64Cu]NOTA-pentixather (122 pmol/0.160 μg peptide; AS = 43 GBq/μmol). Non-specific tracer accumulation was determined by coinjection of 2 mg/kg AMD3100 (50 μg/mouse; white bars, n = 3)
(§3) For PET and biodistribution studies, an average of 5.2 MBq [^64Cu]NOTA-pentixather (200 μL in PBS, 122 pmol, 160 ng) with a SA of 43 GBq/μmol was injected intravenously into the tail vein of isofluorane anaesthesized female Daudi (human B-cell lymphoma) xenograft bearing CB17 SCID mice. […] PET imaging with [^64Cu]NOTA-pentixather under ‘tracer only’ (n = 2) as well as blocking conditions (coinjection of 2 mg/kg AMD3100, n = 1) was performed at three different time points (dynamic PET imaging for 1 h, followed by static image acquisition for 15 min after 3.5 and 24 h) using an Inveon Siemens μPET scanner. PET/CT images were reconstructed by a two-dimensional ordered subset expectation maximum (2D-OSEM) algorithm with no attenuation correction. Image analysis was performed using the Inveon software, and results were calculated as %ID/g. For biodistribution studies, the mice were sacrificed at 1.5 h (n = 5) and 24 h (n = 6) p.i., tissues and organs of interest were dissected, weighed, and counted for radioactivity in a γ-counter. The percentage of injected dose per gram of tissue (% ID/g) was calculated; data are presented as mean ± SD.

On the set-up of data set [2]: species or system mice. The note with it: mouse, in vivo, iv. On the procedure: as §1, §2, §3
Data set [3] is classed as physicochemical. The note with it: pH 7.4. As to the method: The lipophilicity and serum stability of [^64Cu]NOTA-pentixather were determined as described previously (Poschenrieder et al. [2016a]). Briefly, to a solution of app. 2 kBq of radiolabelled peptide in 500 μL of PBS (pH 7.4), 500 μL of octanol were added (n = 6). Vials were vortexed vigorously for 3 min. To achieve quantitative phase separation, the vials were centrifuged at 14,600 · g for 6 min in a Biofuge 15 (Heraeus Sepatech, Osterode, Germany). The activity concentrations in 100 μL samples of both the aqueous and the organic phase were measured in a gamma counter, and the log Pow was calculated.

Data set [4] is classed as physicochemical. The note with it: buffer, 24 h, pH 2.5. On the procedure: To investigate the in vitro stability of [^64Cu]NOTA-pentixather, the tracer was incubated both in human serum at 37 °C and in 0.1 M EDTA at pH = 2.5 and physiological pH (7.4) at RT for different time points up to 24 h (Fig. 7). [^64Cu]NOTA-pentixather remained stable over 24 h in human serum (>99% intact ^64Cu-chelate).
Fig. 7 In vitro stability of [^64Cu]NOTA-pentixather as a function of incubation time.
For challenging experiments, 4 MBq of [^64Cu]NOTA-pentixather were incubated in 0.1 M EDTA at different pH values (2.5 and 7.4) for a minimum of 24 h. At specific time points, samples were analyzed via radio-TLC using silica gel impregnated chromatography paper (Agilent Technologies, CA, USA) and 0.1 M phosphate buffer (pH = 7.4) containing 10 mM sodium EDTA as the mobile phase.

A further data set concerns the target T1, human CXCR4 (Homo sapiens, UniProt P61073).
T1 construct: CXCR4-expressing Jurkat T-lymphocytes (4 × 10^5 cells per sample); endogenous in cells; host or cells: Jurkat T-cell leukemia cells
The data set is described as follows: Competitive binding assay on Jurkat T-cell leukemia cells with [^125I]FC131 as radioligand. The following applies: Jurkat cells 400.000 cells/sample, [^125I]FC131 radioligand, mean ± SD, min. three determinations. As to the method: The CXCR4 affinities of [^natCu]NOTA- and [^natCu]NODAGA-pentixather as well as of the corresponding metal free chelator-conjugated peptides were determined in a competitive binding assay using standard conditions (CXCR4-expressing Jurkat T-lymphocytes (4 × 10^5 cells per sample) and [^125I]FC131 as the radioligand (Poschenrieder et al. [2016a]; Wester et al. [2015]; Schottelius et al. [2015]; Poschenrieder et al. [2016b])) (Table 1). Data for [^natGa]pentixafor and FC131 are included as a reference. As already observed for [^natGa]pentixafor, metal complexation leads to enhanced CXCR4 affinity, both for [^natCu]NOTA-pentixather and for [^natCu]NODAGA-pentixather.
CXCR4 affinities were determined using Jurkat T-cell leukemia cells and [^125I]FC131 as the radioligand (Poschenrieder et al. [2016b]). Briefly, cells (4 × 10^5 cells per vial) were incubated with app. 0.1 nM of [^125I]FC131 in the presence of varying concentrations (10^−11 to 10^−5 M) of the respective peptide of interest (n = 3 samples/concentration) for 120 min at RT. After centrifugation and repeated washing steps, the amount of free and bound radioligand were quantified for each sample using a γ-counter, and IC50 values were calculated using GraphPad Prism 6.01 software.

Structures are written as SMILES. Like-named read-outs stand apart in the source and are kept apart here. Where a SMILES comes first, the peptide text is derived from it. Side-chain parts run from the residue outwards. [ ]: non-standard residue; d: D form. The star is where a group is joined. NODAGA = O=C(O)CN1CCN(CC(=O)O)CCN(C(CCC(=O)*)C(=O)O)CC1; NOTA = O=C(O)CN1CCN(CC(=O)O)CCN(CC(=O)*)CC1; dTyr(3-I) = N[C@H](Cc1ccc(O)c(I)c1)C(=O)O; 2Nal = N[C@@H](Cc1ccc2ccccc2c1)C(=O)O; dNMeOrn = CN[C@H](CCCN)C(=O)O; 4Amb = NCc1ccc(C(=O)O)cc1

T1 sequence (P61073 whole entry): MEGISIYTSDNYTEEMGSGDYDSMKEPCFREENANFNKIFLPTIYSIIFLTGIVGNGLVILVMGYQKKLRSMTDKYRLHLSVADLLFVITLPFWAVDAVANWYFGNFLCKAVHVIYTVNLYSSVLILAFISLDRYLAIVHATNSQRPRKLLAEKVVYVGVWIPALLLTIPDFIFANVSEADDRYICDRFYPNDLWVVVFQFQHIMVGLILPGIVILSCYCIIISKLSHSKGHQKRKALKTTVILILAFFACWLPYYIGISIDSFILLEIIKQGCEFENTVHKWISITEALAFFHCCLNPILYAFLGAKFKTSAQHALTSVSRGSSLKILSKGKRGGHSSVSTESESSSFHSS

Regarding `CN1C(=O)[C@@H](Cc2ccc(O)c(I)c2)NC(=O)CNC(=O)[C@H](Cc2ccc3ccccc3c2)NC(=O)[C@H](CCCNC(=N)N)NC(=O)[C@H]1CCCNC(=O)c1ccc(CNC(=O)CN2CCN(CC(=O)O)CCN(CC(=O)O)CC2)cc1` [[^64Cu]NOTA-pentixather, metal not drawn] (cyclo([dTyr(3-I)][dNMeOrn]([4Amb-NOTA])R[2Nal]G)), the “increase of t/blood ratio” value in data set [1] was found to be 1.3 fold. Further, the “increase of t/intestine ratio” value in data set [1] is recorded as 2.4 fold. In addition, the tissue uptake at 1.5 h in data set [2] (Tumor uptake) stood at 13.1 ± 1.5 %ID/g; in data set [2] (accumulation in the intestines) it was 5 ± 2.8 %ID/g; in data set [2] (accumulation in the liver) it was 7.2 ± 1.1 %ID/g; in data set [2] (activity accumulation in the kidney), 3.8 ± 0.5 %ID/g; in data set [2] (activity in blood) it was 1.1 ± 0.2 %ID/g. In addition, the logP in data set [3] is -1.2. Besides, in data set [4], the tracer remaining intact result is listed as “over 90%”.

`CN1C(=O)[C@@H](Cc2ccc(O)c(I)c2)NC(=O)CNC(=O)[C@H](Cc2ccc3ccccc3c2)NC(=O)[C@H](CCCNC(=N)N)NC(=O)[C@H]1CCCNC(=O)c1ccc(CNC(=O)CCC(C(=O)O)N2CCN(CC(=O)O)CCN(CC(=O)O)CC2)cc1` (stereo partly shown) [NODAGA-pentixather] (cyclo([2Nal]G[dTyr(3-I)][dNMeOrn]([4Amb-NODAGA])R)) showed an IC50 at human CXCR4 of 64.9 ± 6.5 nM.
